Experimental data from US20260327204A1, “DEGRADERS OF CYCLIN-DEPENDENT KINASE 12/13, COMPOSITIONS, AND USES THEREOF” (ZHEJIANG UNIVERSITY, priority 2023, published 2026).

Experiments:
CDK12 = CDK12 (Homo sapiens, UniProt Q9NYV4); experiment: Western blot degradation of CDK12 (Example 3); assay type: cell-based; set-up: degradation of CDK12/13 protein in leukemia cells KASUMI-1, MV4-11, and Jurkat; endogenous in cells; conditions: DC50 classes; cell line not given; read-out: CDK12 degradation Activity
CDK12, sequence (Q9NYV4 whole entry): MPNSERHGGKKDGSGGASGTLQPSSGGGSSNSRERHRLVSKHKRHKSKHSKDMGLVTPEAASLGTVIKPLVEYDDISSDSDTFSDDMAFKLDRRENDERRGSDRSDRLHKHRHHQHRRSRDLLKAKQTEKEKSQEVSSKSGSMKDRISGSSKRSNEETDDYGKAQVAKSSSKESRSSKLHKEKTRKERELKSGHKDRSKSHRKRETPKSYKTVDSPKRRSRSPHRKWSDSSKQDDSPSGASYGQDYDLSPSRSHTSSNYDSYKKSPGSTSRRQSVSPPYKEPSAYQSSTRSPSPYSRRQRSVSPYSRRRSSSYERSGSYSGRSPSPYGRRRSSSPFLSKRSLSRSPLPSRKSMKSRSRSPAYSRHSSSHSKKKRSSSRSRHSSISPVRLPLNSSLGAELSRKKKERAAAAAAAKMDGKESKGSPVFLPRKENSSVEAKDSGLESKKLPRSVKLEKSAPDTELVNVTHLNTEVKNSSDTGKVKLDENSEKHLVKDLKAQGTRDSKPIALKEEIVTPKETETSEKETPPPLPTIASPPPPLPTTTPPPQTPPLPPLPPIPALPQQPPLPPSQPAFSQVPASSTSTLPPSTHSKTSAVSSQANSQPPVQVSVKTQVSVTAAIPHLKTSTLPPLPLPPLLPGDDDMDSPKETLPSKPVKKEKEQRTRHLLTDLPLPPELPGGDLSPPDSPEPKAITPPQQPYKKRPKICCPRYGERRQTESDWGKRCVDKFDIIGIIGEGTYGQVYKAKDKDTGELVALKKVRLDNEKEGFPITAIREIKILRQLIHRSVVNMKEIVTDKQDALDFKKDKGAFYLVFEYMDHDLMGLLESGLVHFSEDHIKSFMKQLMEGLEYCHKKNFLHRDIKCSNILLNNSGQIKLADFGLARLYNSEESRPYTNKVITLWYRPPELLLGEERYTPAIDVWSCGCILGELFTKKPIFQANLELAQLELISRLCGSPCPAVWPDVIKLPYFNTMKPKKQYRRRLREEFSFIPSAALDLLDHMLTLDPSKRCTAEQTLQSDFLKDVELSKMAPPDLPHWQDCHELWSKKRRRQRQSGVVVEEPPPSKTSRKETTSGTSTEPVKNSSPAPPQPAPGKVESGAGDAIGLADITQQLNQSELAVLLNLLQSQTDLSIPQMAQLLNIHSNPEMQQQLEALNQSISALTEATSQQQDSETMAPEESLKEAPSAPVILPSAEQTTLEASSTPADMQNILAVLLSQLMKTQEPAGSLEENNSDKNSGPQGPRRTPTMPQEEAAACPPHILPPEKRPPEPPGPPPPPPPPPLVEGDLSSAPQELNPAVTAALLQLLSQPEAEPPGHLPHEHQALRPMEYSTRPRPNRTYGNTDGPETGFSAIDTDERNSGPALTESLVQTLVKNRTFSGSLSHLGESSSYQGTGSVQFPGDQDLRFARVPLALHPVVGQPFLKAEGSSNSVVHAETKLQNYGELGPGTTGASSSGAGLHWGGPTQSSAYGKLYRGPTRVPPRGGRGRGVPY
CDK12, sequence (O75909 whole entry partner): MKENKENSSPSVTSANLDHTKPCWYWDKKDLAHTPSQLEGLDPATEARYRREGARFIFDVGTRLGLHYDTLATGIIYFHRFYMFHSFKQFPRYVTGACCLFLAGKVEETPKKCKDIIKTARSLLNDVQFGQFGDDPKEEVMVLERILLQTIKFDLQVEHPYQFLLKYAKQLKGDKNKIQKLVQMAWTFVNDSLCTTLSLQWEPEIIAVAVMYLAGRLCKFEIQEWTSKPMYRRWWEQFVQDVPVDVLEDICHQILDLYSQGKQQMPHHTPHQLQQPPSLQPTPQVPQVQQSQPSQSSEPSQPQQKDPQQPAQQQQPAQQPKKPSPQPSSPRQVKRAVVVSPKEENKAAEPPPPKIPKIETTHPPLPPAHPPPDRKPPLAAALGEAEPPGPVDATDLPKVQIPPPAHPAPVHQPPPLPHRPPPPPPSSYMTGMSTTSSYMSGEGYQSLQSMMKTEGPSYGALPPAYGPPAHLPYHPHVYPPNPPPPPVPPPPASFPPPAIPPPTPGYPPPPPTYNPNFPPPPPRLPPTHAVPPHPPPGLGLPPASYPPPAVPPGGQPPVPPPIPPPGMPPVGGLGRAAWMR

CDK13 = CDK13 (Homo sapiens, UniProt Q14004); experiment: Western blot degradation of CDK13 (Example 3); assay type: cell-based; set-up: degradation of CDK12/13 protein in leukemia cells KASUMI-1, MV4-11, and Jurkat; endogenous in cells; conditions: DC50 classes, cell line not given; for DC50: read-out: CDK13 degradation Activity
CDK13, sequence (Q14004 whole entry): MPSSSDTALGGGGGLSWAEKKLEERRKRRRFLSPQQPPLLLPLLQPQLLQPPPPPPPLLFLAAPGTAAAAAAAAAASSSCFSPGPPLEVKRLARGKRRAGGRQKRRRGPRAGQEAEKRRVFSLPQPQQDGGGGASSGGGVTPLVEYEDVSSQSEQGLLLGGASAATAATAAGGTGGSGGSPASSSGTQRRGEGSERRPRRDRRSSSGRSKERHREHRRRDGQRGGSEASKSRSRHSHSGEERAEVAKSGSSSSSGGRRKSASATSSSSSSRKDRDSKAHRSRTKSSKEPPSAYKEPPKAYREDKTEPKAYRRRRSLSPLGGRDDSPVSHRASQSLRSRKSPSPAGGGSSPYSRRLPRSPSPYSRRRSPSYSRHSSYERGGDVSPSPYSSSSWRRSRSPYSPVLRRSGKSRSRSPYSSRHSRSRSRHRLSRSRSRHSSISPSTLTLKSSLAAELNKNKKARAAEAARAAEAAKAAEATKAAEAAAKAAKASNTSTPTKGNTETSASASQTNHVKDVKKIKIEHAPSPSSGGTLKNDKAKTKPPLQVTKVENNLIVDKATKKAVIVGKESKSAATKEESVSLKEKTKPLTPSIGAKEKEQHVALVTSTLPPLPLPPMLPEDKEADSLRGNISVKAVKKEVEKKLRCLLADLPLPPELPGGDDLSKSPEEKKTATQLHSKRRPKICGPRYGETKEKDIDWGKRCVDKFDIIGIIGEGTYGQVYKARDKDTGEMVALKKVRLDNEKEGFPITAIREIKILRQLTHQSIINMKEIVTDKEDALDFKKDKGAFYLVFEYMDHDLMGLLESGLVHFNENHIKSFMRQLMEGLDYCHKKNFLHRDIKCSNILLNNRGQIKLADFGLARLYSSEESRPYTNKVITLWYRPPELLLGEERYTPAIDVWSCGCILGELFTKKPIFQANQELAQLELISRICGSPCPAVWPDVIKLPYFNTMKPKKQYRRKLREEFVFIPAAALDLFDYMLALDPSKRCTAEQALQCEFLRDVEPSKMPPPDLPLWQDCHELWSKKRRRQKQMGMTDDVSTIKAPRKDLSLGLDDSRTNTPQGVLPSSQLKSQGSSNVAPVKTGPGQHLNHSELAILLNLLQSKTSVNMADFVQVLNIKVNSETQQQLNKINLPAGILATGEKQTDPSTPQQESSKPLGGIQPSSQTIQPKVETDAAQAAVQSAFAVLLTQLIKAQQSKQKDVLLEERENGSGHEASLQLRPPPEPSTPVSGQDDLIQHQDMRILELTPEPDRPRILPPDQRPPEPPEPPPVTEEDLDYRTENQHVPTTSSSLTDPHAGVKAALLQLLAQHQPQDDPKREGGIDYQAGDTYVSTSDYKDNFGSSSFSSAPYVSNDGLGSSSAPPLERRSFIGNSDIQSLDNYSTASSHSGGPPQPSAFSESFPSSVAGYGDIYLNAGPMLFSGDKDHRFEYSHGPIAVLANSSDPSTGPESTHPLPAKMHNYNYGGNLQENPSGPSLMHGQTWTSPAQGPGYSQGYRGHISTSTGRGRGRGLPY
CDK13, sequence (O75909 whole entry partner): as the sequence (O75909 whole entry partner) above

DC50 (CDK12)	CDK13 degradation Activity (CDK13)	DC50 (CDK13)	SMILES
1000 to 3000 nM	−		CC(=O)N(c1ccc(-c2cnc(N3CCC(C(=O)N[C@H](C(=O)N4C[C@H](O)C[C@H]4C(=O)N[C@@H](C)c4ccc(-c5scnc5C)cc4)C(C)(C)C)CC3)nc2)cc1)[C@H]1CC[C@H](Nc2ncc3ccccc3n2)CC1 [Formula 138, N—((S)-1-((2S,4R)-4-hydroxy-2-(((S)-1-(4-(4-methylthiazol-5-yl)phenyl)ethyl)carbamoyl)pyrrolidin-1-yl)-3,3-dimethyl-1-oxobutan-2-yl)-1-(5-(4-(N-((1R,4R)-4-(quinazolin-2-ylamino)cyclohexyl)acetamido)phenyl)pyrimidin-2-yl)piperidine-4-carboxamide]
1000 to 3000 nM		1000 to 3000 nM	CC(=O)N(c1ccc(-c2cnn(C3CCN(CC(=O)N[C@H](C(=O)N4C[C@H](O)C[C@H]4C(=O)N[C@@H](C)c4ccc(-c5scnc5C)cc4)C(C)(C)C)CC3)c2)cc1)[C@H]1CC[C@H](Nc2ncc3ccccc3n2)CC1 [Formula 139]
< 100 nM		100 to 500 nM	CC(=O)N(c1ccc(-c2ccc(N3C[C@@H]4C[C@H]3CN4CC(=O)N[C@H](C(=O)N3C[C@H](O)C[C@H]3C(=O)N[C@@H](C)c3ccc(-c4scnc4C)cc3)C(C)(C)C)nc2)cc1)[C@H]1CC[C@H](Nc2ncc3ccccc3n2)CC1 [Formula 141, (2S,4R)-1-((S)-3,3-dimethyl-2-(2-((1S,4S)-5-(5-(4-(N-((1R,4S)-4-(quinazolin-2-ylamino)cyclohexyl)acetamido)phenyl)pyridin-2-yl)-2,5-diazabicyclo[2.2.1]heptan-2-yl)acetamido)butanoyl)-4-hydroxy-N—((S)-1-(4-(4-methylthiazol-5-yl)phenyl)ethyl)pyrrolidine-2-carboxamide]
< 100 nM		< 100 nM	CC(=O)N(c1ccc(-c2cnc(N3C[C@@H]4C[C@H]3CN4CC(=O)N[C@H](C(=O)N3C[C@H](O)C[C@H]3C(=O)N[C@@H](C)c3ccc(-c4scnc4C)cc3)C(C)(C)C)nc2)cc1)[C@H]1CC[C@H](Nc2ncc3ccccc3n2)CC1 [Formula 142, (2S,4R)-1-((S)-3,3-dimethyl-2-(2-((1S,4S)-5-(5-(4-(N-((1R,4S)-4-(quinazolin-2-ylamino)cyclohexyl)acetamido)phenyl)pyrimidin-2-yl)-2,5-diazabicyclo[2.2.1]heptan-2-yl)acetamido)butanoyl)-4-hydroxy-N—((S)-1-(4-(4-methylthiazol-5-yl)phenyl)ethyl)pyrrolidine-2-carboxamide]
100 to 500 nM		100 to 500 nM	CC(=O)N(c1ccc(-c2ccc(N3C[C@H]4C[C@@H]3CN4CC(=O)N[C@H](C(=O)N3C[C@H](O)C[C@H]3C(=O)N[C@@H](C)c3ccc(-c4scnc4C)cc3)C(C)(C)C)nc2)cc1)[C@H]1CC[C@H](Nc2ncc3ccccc3n2)CC1 [Formula 143, (2S,4R)-1-((S)-3,3-dimethyl-2-(2-((1R,4R)-5-(5-(4-(N-((1R,4S)-4-(quinazolin-2-ylamino)cyclohexyl)acetamido)phenyl)pyridin-2-yl)-2,5-diazabicyclo[2.2.1]heptan-2-yl)acetamido)butanoyl)-4-hydroxy-N—((S)-1-(4-(4-methylthiazol-5-yl)phenyl)ethyl)pyrrolidine-2-carboxamide]
< 100 nM		100 to 500 nM	CC(=O)N(c1ccc(-c2cnc(N3C[C@H]4C[C@@H]3CN4CC(=O)N[C@H](C(=O)N3C[C@H](O)C[C@H]3C(=O)N[C@@H](C)c3ccc(-c4scnc4C)cc3)C(C)(C)C)nc2)cc1)[C@H]1CC[C@H](Nc2ncc3ccccc3n2)CC1 [Formula 144, (2S,4R)-1-((S)-3,3-dimethyl-2-(2-((1R,4R)-5-(5-(4-(N-((1r,4S)-4-(quinazolin-2-ylamino)cyclohexyl)acetamido)phenyl)pyrimidin-2-yl)-2,5-diazabicyclo[2.2.1]heptan-2-yl)acetamido)butanoyl)-4-hydroxy-N—((S)-1-(4-(4-methylthiazol-5-yl)phenyl)ethyl)pyrrolidine-2-carboxamide]
